Tests used:
Assay type in all cases: cell-based
[1] = tested on: E. coli (ATCC #25922); test: Zone-of-inhibition, ranked, bismuth thiol coated SIS discs (Example 1); conditions: 24 hours
Procedure: (§1) Seven bismuth thiol compounds (50 mg each) were obtained from Microbion, Inc. (Bozeman, Mont.). These compounds included 2 preparations of bismuth-1,2-ethanedithiol (BisEDT) (Molar ratio 1:1.5), 2 preparations of bismuth-2,3-dimercaptopropanol (BisBAL) (1:1 and 1:1.5), bismuth dithioethylhritol (BisERY) (1:1.5), bismuth-3,4-dimercatotoluene (BisTOL) (1:1.5) and bismuth butanedithiol (BisBDT) (1:1.5). Purified small intestinal submucosa (SIS) (Cook Biotech Incorporated, West Lafayette, Ind.) was made into wetted 4-layer constructs which were laminated together by lyophilization and subsequently cut into 15 mm discs (˜1.76 cm^2) using a disc punch. Bismuth thiols were resuspended in dimethyl sulfoxide (DMSO) and diluted to appropriate concentrations for coating. Discs were coated with the bismuth thiol solutions at three final concentrations using 17.6 μl of the appropriate solution per disc for a final concentration of 1, 10, or 100 μg/cm^2. The discs were subsequently placed in a lyophilizer overnight to remove the DMSO solvent. Control discs were prepared using 17.6 μl of DMSO without a bismuth thiol preparation. 3 bacteria were used for this experiment: S. aureus (ATCC #25983), P. aeruginosa (ATCC #27853), and E. coli (ATCC #25922). Bacteria was grown in Tryptic Soy Broth for 16-24 hours before placing a lawn on Tryptic Soy Agar in 100 mm Petri dishes.
(§2) Sixty six samples were tested in total (7 bismuth thiol preparations 3 doses=21+1 control=22×3 bacteria=66). A lawn of one of the three bacteria investigated was swabbed onto the Tryptic Soy Agar. The bismuth thiol coated disc was placed approximately in the center of the plate and rehydrated with ˜50 μl of sterile saline. Plates were incubated inverted for 24 hours at which time pictures were taken with a digital camera. Zones-of-inhibition were categorized by the approximate distance of bacterial growth inhibition from the disc edge. The effectiveness was ranked as follows: (−) for no growth retardation, (+) for growth retardation at <1 mm from disc edge, (++) for growth retardation 1-3 mm from disc edge, and (+++) for growth retardation greater than 3 mm from disc edge. Results are shown below in Tables 2-4.

[2] = tested on: P. aeruginosa (ATCC #27853); test: as above; conditions: 24 hours
Procedure: as §1, §2

[3] = tested on: S. aureus (ATCC #25983); test: as above; conditions: 24 hours
Procedure: as §1, §2

[4] = tested on: E. coli (ATCC #25922); test: Zone-of-inhibition measured by image analysis, coated SIS discs (Example 2); conditions: 10 μg/cm^2 on SIS disc, 24 hours, n=3
Procedure: (§3) BisEDT (Molar ratio 1:1.5), BisBAL (1:1.5), and BisERY (1:1.5) (50 mg each) were obtained from Microbion, Inc. Small intestinal submucosa (SIS) was obtained and processed into 4-layer lyophilized sheets as described in Example 1. The sheets were subsequently cut into 15 mm discs (˜1.76 cm^2) using a disc punch. Bismuth thiols were resuspended in dimethyl sulfoxide (DMSO) and diluted to 0.35 μg/μl for coating. Discs were coated with the bismuth thiol solutions 50 μl of the appropriate solution per disc for a final concentration 10 μg/cm^2 (0.35 μg/μl*50 μl=17.5 μg/1.76 cm^2=10 μg/cm^2). The discs were subsequently placed in a lyophilizer overnight to remove the DMSO solvent. Control discs were prepared using 50 μl of DMSO without a bismuth thiol preparation. 3 bacteria were used for this experiment: S. aureus (ATCC #25983), P. aeruginosa (ATCC #27853), and E. coli (ATCC #25922). Bacteria was grown in Tryptic Soy Broth for 16-24 hours before placing a lawn on Tryptic Soy Agar in 100 mm Petri dishes.
(§4) Thirty samples were tested in total (3 bismuth thiol preparations @ n=3→9+1 control=10×3 bacteria=30). A lawn of one of the three bacteria investigated was swabbed onto the Tryptic Soy Agar. The bismuth thiol coated disc was rehydrated for ˜5 minutes in sterile saline and placed approximately in the center of the plate. Plates were incubated inverted for 24 hours at which time pictures were taken with a digital camera. Zones-of-inhibition were measured using image analysis software (Spot RT) by determining the distance of bacterial growth inhibition from the disc edge.

[5] = tested on: P. aeruginosa (ATCC #27853); test: as above; conditions: 10 μg/cm^2 on SIS disc, 24 hours, n=3
Procedure: as §3, §4

[6] = tested on: S. aureus (ATCC #25983); test: as above; conditions: 10 μg/cm^2 on SIS disc, 24 hours, n=3
Procedure: as §3, §4

[7] = tested on: S. aureus (ATCC #25983); test: Zone-of-inhibition after various rehydration times of coated SIS discs (Example 3)
Procedure: BisEDT (Molar ratio 1:1.5) and BisBAL (1:1.5) (50 mg each) were obtained from Microbion, Inc. Small intestinal submucosa (SIS) was obtained and processed into 4-layer lyophilized sheets as described in Example 1. The sheets were subsequently cut into 15 mm discs (˜1.76 cm^2) using a disc punch. Bismuth thiols were resuspended in dimethyl sulfoxide (DMSO) and diluted to appropriate concentrations for coating. Discs were coated with the bismuth thiol solutions at a final concentration of 0.35 μg/μl using 50 μl of the solution per disc for a final concentration of 10 μg/cm^2. The discs were subsequently placed in a lyophilizer overnight to remove the DMSO solvent. S. aureus (ATCC #25983) was used as the bacteria for this experiment. Bacteria was grown in Tryptic Soy Broth for 16-24 hours before placing a lawn on Tryptic Soy Agar in 100 mm Petri dishes.
Thirty six samples were tested in total (2 BT*n=3→6*6 rehydration times→36). A lawn of S. aureus was swabbed onto the Tryptic Soy Agar. For the 0 rehydration time point, the bismuth thiol coated disc was placed approximately in the center of the plate and rehydrated with ˜50 μl of sterile saline. Other rehydration times were varied at 5, 10, 20, 30, or 60 minutes. For this, the samples were placed in sterile saline and a timer set for each time. At the appropriate time, samples were removed from the saline and placed approximately in the center of the plate. Plates were incubated inverted for 24 hours at which time pictures were taken with a digital camera. Zones-of-inhibition were compared visually between groups.

Molecule	Zone-of-inhibition rank (E. coli) ([1]; 1 μg/cm^2 on SIS disc)	Zone-of-inhibition rank (E. coli) ([1]; 10 μg/cm^2 on SIS disc)	Zone-of-inhibition rank (E. coli) ([1]; 100 μg/cm^2 on SIS disc)	Zone-of-inhibition rank (P. aeruginosa) ([2]; 1 μg/cm^2 on SIS disc)	Zone-of-inhibition rank (P. aeruginosa) ([2]; 10 μg/cm^2 on SIS disc)	Zone-of-inhibition rank (P. aeruginosa) ([2]; 100 μg/cm^2 on SIS disc)	Zone-of-inhibition rank (S. aureus) ([3]; 1 μg/cm^2 on SIS disc)	Zone-of-inhibition rank (S. aureus) ([3]; 10 μg/cm^2 on SIS disc)	Zone-of-inhibition rank (S. aureus) ([3]; 100 μg/cm^2 on SIS disc)	Zone-of-inhibition, distance of bacterial growth inhibition from the disc edge [4]	Zone-of-inhibition, distance of bacterial growth inhibition from the disc edge [5]	Zone-of-inhibition, distance of bacterial growth inhibition from the disc edge [6]	Effect of rehydration time on zone-of-inhibition, visual comparison ([7]; 10 μg/cm^2, rehydration 0-60 minutes in sterile saline)	Zone-of-inhibition, visual ([7]; 10 μg/cm^2 on SIS disc, rehydration 0, 5, 10, 20, 30 or 60 minutes)
bismuth-1,2-ethanedithiol [Bis EDT2]	−	+ ((+) for growth retardation at <1 mm from disc edge)	+ ((+) for growth retardation at <1 mm from disc edge)	−	−	++ ((++) for growth retardation 1-3 mm from disc edge)	++ ((++) for growth retardation 1-3 mm from disc edge)	++ ((++) for growth retardation 1-3 mm from disc edge)	+++ ((+++) for growth retardation greater than 3 mm from disc edge)					
bismuth-1,2-ethanedithiol [Bis EDT1]	−	−	+ ((+) for growth retardation at <1 mm from disc edge)	−	+ ((+) for growth retardation at <1 mm from disc edge)	+ ((+) for growth retardation at <1 mm from disc edge)	+ ((+) for growth retardation at <1 mm from disc edge)	++ ((++) for growth retardation 1-3 mm from disc edge)	+++ ((+++) for growth retardation greater than 3 mm from disc edge)					
OCC(S)CS.[Bi] (stereo not shown) [Bis BAL1, bismuth-2,3-dimercaptopropanol]	−	++ ((++) for growth retardation 1-3 mm from disc edge)	+++ ((+++) for growth retardation greater than 3 mm from disc edge)	−	+ ((+) for growth retardation at <1 mm from disc edge)	+++ ((+++) for growth retardation greater than 3 mm from disc edge)	+ ((+) for growth retardation at <1 mm from disc edge)	+++ ((+++) for growth retardation greater than 3 mm from disc edge)	+++ ((+++) for growth retardation greater than 3 mm from disc edge)					
OCC(S)CS.[Bi] (stereo not shown) [Bis BAL2, bismuth-2,3-dimercaptopropanol]	−	++ ((++) for growth retardation 1-3 mm from disc edge)	+++ ((+++) for growth retardation greater than 3 mm from disc edge)	−	+ ((+) for growth retardation at <1 mm from disc edge)	+++ ((+++) for growth retardation greater than 3 mm from disc edge)	+ ((+) for growth retardation at <1 mm from disc edge)	+++ ((+++) for growth retardation greater than 3 mm from disc edge)						
bismuth-3,4-dimercatotoluene [Bis TOL]	−	−	−	−	−	−	−	+ ((+) for growth retardation at <1 mm from disc edge)	+ ((+) for growth retardation at <1 mm from disc edge)					
bismuth dithioethylhritol [Bis ERY]	−	++ ((++) for growth retardation 1-3 mm from disc edge)	+++ ((+++) for growth retardation greater than 3 mm from disc edge)	−	++ ((++) for growth retardation 1-3 mm from disc edge)	+++ ((+++) for growth retardation greater than 3 mm from disc edge)	−	++ ((++) for growth retardation 1-3 mm from disc edge)	+++ ((+++) for growth retardation greater than 3 mm from disc edge)					
bismuth butanedithiol [Bis BDT]	−	++ ((++) for growth retardation 1-3 mm from disc edge)	++ ((++) for growth retardation 1-3 mm from disc edge)	−	+ ((+) for growth retardation at <1 mm from disc edge)	++ ((++) for growth retardation 1-3 mm from disc edge)	−	++ ((++) for growth retardation 1-3 mm from disc edge)	+++ ((+++) for growth retardation greater than 3 mm from disc edge)					
OCC(S)CS.[Bi] (stereo not shown) [BisBAL, bismuth-2,3-dimercaptopropanol]										1.50	0.16	7.27	no visual differences between the rehydration time points	significant effectiveness in creating a zone-of-inhibition

Source: patent US8343536B2, “Biofilm-inhibiting medical products” (Cook Biotech Incorporated, priority 2007, dated 2013)
